Measurements taken from US9422363B2, “Synthetic apolipoprotein E mimicking polypeptides and methods of use” (UAB RESEARCH FOUNDATION, priority 2007, dated 2016).

What was measured:
WHHL rabbits [1] = conditions: single administration; cited from earlier work
[2] = test system: 1% cholesterol fed NZW-rabbits; assay: Plasma turbidity and aortic atherosclerosis (en face Oil Red O) in 1% cholesterol fed NZW rabbits; format: in vivo, rabbit
Description: In another set of experiments it was noted that Ac-hE18A-NH2 clears the plasma turbidity in 1% cholesterol fed NZW-rabbits. 3 mg/kg of peptide was administered intravenously/week. The rabbits were sacrificed after 51 days from the start of diet. Aortas were harvested and en face analysis was done on Oil Red O stained tissue samples. […] This was associated with decrease in atherogenic lipoproteins and inhibition of atherosclerosis at day 51.

ZDF (fa/fa) rats = assay: Onset and progression of DM-2 in male ZDF (fa/fa) rats: fasting plasma glucose, insulin, adiponectin; format: in vivo, rat
Description: This example outlies studies carried out for the evaluation of the effects of these peptides in the prevention of onset and progression of DM-2. […] Baseline fasting plasma was collected prior to peptide administration. Biweekly injections (6 for Ac-hE18A-NH2 group and 5 for L-4F group were administered before day 18). From day 18-day 33, no additional peptide/vehicle injection were performed. […] (B) Corresponding insulin levels are depicted in the control and Ac-hE18A-NH2 group only. Control animals become relatively insulin resistant at day 18 as depicted by hyperinsulinemia and hyperglycemia. […] Data are expressed as Mean±SEM; *p<0.05.
Relatively infrequent injections (biweekly) of the peptides as compared to vehicle were able to improve glucose homeostasis in the ZDF rats. Form the studies it was determined that adiponectin levels in the peptide treated animals were much higher than in controls at day 33 (5.7±1 vs. […], p<0.05). […] Adiponectin also prevents the production and action of pro-inflammatory TNF-α and IL-6 and induces anti-inflammatory cytokine IL-10 and IL-1 receptor antagonist. A summary of the potential effects of the peptides on liver, pancreas, peripheral tissue, blood and blood vessel are depicted in FIG. 5.

WHHL rabbits [3] = assay: Ac-hE18A-NH2 in WHHL rabbits: plasma PON, lipid hydroperoxides, cholesterol, endothelial function; format: in vivo, rabbit; conditions: plasma of WHHL rabbits; p<0.05; FIG. 1
From the text: These rabbits have defective LDL receptors and therefore have increased atherogenic lipoproteins (mainly LDL). […] This was associated with improved aortic endothelial function. This improvement in endothelial function was mediated in part by increase in PON activity with associated decrease in plasma lipid hydroperoxide (FIG. 1). […] PON is an anti-oxidant enzyme associated with HDL and is responsible for scavenging LOOH in plasma. The lipid lowering effects of Ac-hE18A-NH2 in 1% cholesterol fed NZW-rabbits have also been shown. These animals have elevated cholesterol that are rich in VLDL type of particles.

[4] = test system: 1% cholesterol fed NZW-rabbits; assay: Plasma cholesterol in high fat (1% cholesterol) diet rabbits; format: in vivo, rabbit; conditions: intravenously two times; end of 14 days (21 days after initiation of atherogenic diet); n=4; control about 2000 mg/dl
[5] = 1% cholesterol fed NZW rabbits, 3 mg/kg i.v./week, day 51
[6] = 5 mg/kg i.v. biweekly, day 18, versus control
[7] = day 33, no additional peptide after day 18

For “Ac-LRKLRKRLLRDWLKAFYDKVAEKLKEAF-NH2 [Ac-hE18A-NH2]”, the LDL cholesterol (WHHL rabbits [1]) is given as “dramatic decrease”, the aortic endothelial function (WHHL rabbits [1]) is given as “improved” and the total cholesterol (WHHL rabbits [1]) is given as “dramatic decrease”. The atherogenic lipoproteins [2, 5] was “decrease”, the “atherosclerosis (en face analysis of Oil Red O stained aortas)” value [2, 5] was “inhibits” and the plasma turbidity ([2]; 1% cholesterol fed NZW-rabbits, 3 mg/kg intravenously/week) was “clears”. For the same substance, the fasting plasma glucose (ZDF (fa/fa) rats; 5 mg/kg i.v. biweekly until day 18, day 18 and day 33, versus control) was “only mild increase”, the plasma glucose levels (ZDF (fa/fa) rats; 5 mg/kg i.v. biweekly, day 18) was “normal” and the insulin resistance (ZDF (fa/fa) rats; [6]) was “much less”. The plasma insulin levels (ZDF (fa/fa) rats; [6]) was “lower”, the beta cell function (ZDF (fa/fa) rats; day 18 to day 33, no additional peptide) was “relatively preserved” and the plasma glucose (ZDF (fa/fa) rats; [7]) was “milder increase”. For the same substance, the plasma insulin (ZDF (fa/fa) rats; [7]) was “increase”, the “HDL associated Paraoxonase (PON) activity” value (WHHL rabbits [3]) was “increase” and the “lipid hydroperoxides (LOOH)” value (WHHL rabbits [3]) was “decrease”. It also gave a plasma cholesterol levels [4] of ~1000 mg/dL.
